Test results from ChEMBL document CHEMBL1201862, “PubChem BioAssay data set” (2004).
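Briefly, cells in 96-well plates were exposed to five compound concentrations for 48 h, and endpoints were estimated by linear interpolation. GI50 marks 50% less growth.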 Activity calls are given as the source filed them. Cut-off read from the data, not from the text of the source: active = GI50 up to about 1.1 µM and inactive = higher.

Experiments:
Assay in all cases: NCI anticancer screen, dose series, 48 h
A549 = test system: A549
HT-29 = test system: HT-29
SK-MEL-2 = test system: SK-MEL-2
CCRF-CEM = test system: CCRF-CEM
OVCAR-4 = test system: OVCAR-4
SF-268 = test system: SF-268
U-251 = test system: U-251
MOLT-4 = test system: MOLT-4
ACHN = test system: ACHN
SW-620 = test system: SW-620
SK-OV-3 = test system: SK-OV-3
UACC-62 = test system: UACC-62
M14 = test system: M14
KM12 = test system: KM12
TK-10 = test system: TK-10
OVCAR-8 = test system: OVCAR-8
UO-31 = test system: UO-31
SNB-19 = test system: SNB-19
HOP-62 = test system: HOP-62
NCI-H23 = test system: NCI-H23

Measured: GI50

CCOC(=O)C(=O)Nc1c(CC)cccc1C(C)CC (stereo not given)
inactive: A549 > 100 µM | HT-29 > 100 µM | SK-MEL-2 > 100 µM | CCRF-CEM > 100 µM | OVCAR-4 > 100 µM | SF-268 > 100 µM | U-251 > 100 µM | MOLT-4 > 100 µM | ACHN > 100 µM | SW-620 > 100 µM | SK-OV-3 > 100 µM | UACC-62 > 100 µM | M14 > 100 µM | KM12 > 100 µM | TK-10 > 100 µM | OVCAR-8 > 100 µM | UO-31 > 100 µM | SNB-19 > 100 µM | HOP-62 > 100 µM | NCI-H23 > 100 µM

O=S1(=O)C[C@H](NCc2ccccc2)[C@H](NCc2ccccc2)C1
inactive: A549 > 100 µM | HT-29 > 100 µM | SK-MEL-2 > 100 µM | CCRF-CEM 29.4 µM | OVCAR-4 > 100 µM | SF-268 > 100 µM | U-251 93.8 µM | MOLT-4 23.8 µM | ACHN > 100 µM | SW-620 > 100 µM | SK-OV-3 > 100 µM | UACC-62 > 100 µM | M14 > 100 µM | KM12 > 100 µM | TK-10 > 100 µM | OVCAR-8 96.2 µM | UO-31 > 100 µM | SNB-19 > 100 µM | HOP-62 > 100 µM | NCI-H23 > 100 µM

COc1c(OC)c(OC)c2c(c1OC)c(=O)c1ccccc1n2C [MELICOPICINE]
inactive: A549 > 100 µM | HT-29 > 100 µM | SK-MEL-2 > 100 µM | CCRF-CEM > 10 µM | OVCAR-4 65.6 µM | SF-268 > 100 µM | U-251 > 100 µM | MOLT-4 51.1 µM | ACHN > 100 µM | SW-620 > 100 µM | SK-OV-3 > 100 µM | UACC-62 > 100 µM | M14 > 100 µM | KM12 12.9 µM | TK-10 > 100 µM | OVCAR-8 > 100 µM | UO-31 > 100 µM | SNB-19 > 100 µM | HOP-62 > 100 µM | NCI-H23 > 100 µM
